Read-outs that look alike come from different tables or passages of the source.
Legend:
[1] = test system: rabbit heart; details: cited from earlier work
[2] = Hemodynamics (heart rate, mean arterial pressure) during ischemia/reperfusion
[3] = test system: chick cardiomyocytes; details: cited from earlier work
[4] = target: A2a receptor subtype (Homo sapiens, UniProt P29274); details: cited from earlier work
[5] = test system: rabbit hearts; details: cited from earlier work
[6] = target: T1, A1 receptor subtype (Homo sapiens, UniProt P30542); details: cited from earlier work
T1 sequence (P30542 1-326): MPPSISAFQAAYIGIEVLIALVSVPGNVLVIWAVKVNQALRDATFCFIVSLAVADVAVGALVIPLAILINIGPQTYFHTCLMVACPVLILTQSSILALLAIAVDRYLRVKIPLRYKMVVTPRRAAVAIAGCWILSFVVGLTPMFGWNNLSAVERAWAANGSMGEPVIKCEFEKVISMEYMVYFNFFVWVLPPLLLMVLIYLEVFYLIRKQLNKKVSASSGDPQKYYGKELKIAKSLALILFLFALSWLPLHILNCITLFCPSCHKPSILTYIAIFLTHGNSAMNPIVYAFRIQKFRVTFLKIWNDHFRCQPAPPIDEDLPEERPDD

[7] = test system: in situ rabbit hearts; test: Infarct size after 30 min regional ischemia/3 h reperfusion, in situ rabbit hearts; type: in vivo, New Zealand White rabbits; details: for Infarct size, percentage of the risk zone: AMP 579 30 μg/kg iv bolus + 3 μg/kg/min; for Protection against infarction: Adenosine 150, 300 or 400 μg/kg/min; for Infarct size (% of risk zone): starting 10 minutes before reperfusion
Description: Body temperature was maintained at 38-39° C. […] Ischemia was confirmed by appearance of cyanosis.
After 3 h of reperfusion, the rabbit was given an overdose of pentobarbital and the heart was quickly removed from the chest, mounted on a Langendorff apparatus, and perfused with saline to wash out blood. Then the coronary artery was reoccluded, and 5 ml of 0.1% zinc/cadmium sulfide particles (1-10 μm diameter, Duke Scientific Corp, Palo Alto, Calif.) were infused into the perfusate to demarcate the risk zone as the area of tissue without fluorescence. The heart was weighed, frozen, and cut into 2.5-mm-thick slices. The slices were incubated in 1% triphenyltetrazolium chloride (TTC) in sodium phosphate buffer at 37° C. for 20 min. The slices were immersed in 10% formalin to enhance the contrast between stained (viable) and unstained (necrotic) tissue and then squeezed between glass plates spaced exactly 2 mm apart. The myocardium at risk was identified by illuminating the slices with ultraviolet light. The infarcted and risk zone areas were traced on a clear acetate sheet and quantified with planimetry by an investigator blinded to the treatment. The areas were converted into volumes by multiplying the areas by slice thickness. Infarct size is expressed as a percentage of the risk zone.
The control group received no drug treatment.

[8] = AMP (30 min): 30 μg/kg iv bolus + 3 μg/kg/min, started 10 min before reperfusion, 30 min, Baseline
[9] = AMP (30 min): started 10 min before reperfusion, 30 min, Ischemia (end of 30 min)
[10] = AMP (30 min): started 10 min before reperfusion, 30 min, Rep 30′
[11] = AMP (30 min): started 10 min before reperfusion, 30 min, Rep 90′
[12] = AMP (30 min): started 10 min before reperfusion, 30 min, Rep 180′
[13] = AMP (40 min): 30 μg/kg iv bolus + 3 μg/kg/min, started 10 min before reperfusion, 40 min, Baseline
[14] = AMP (40 min): started 10 min before reperfusion, 40 min, Ischemia (end of 30 min)
[15] = AMP (40 min): started 10 min before reperfusion, 40 min, Rep 30′
[16] = AMP (40 min): started 10 min before reperfusion, 40 min, Rep 90′
[17] = AMP (40 min): started 10 min before reperfusion, 40 min, Rep 180′
[18] = AMP (70 min, late): 30 μg/kg iv bolus + 3 μg/kg/min, started 10 min after reperfusion, 70 min, Baseline
[19] = AMP (70 min, late): started 10 min after reperfusion, 70 min, Ischemia (end of 30 min)
[20] = AMP (70 min, late): started 10 min after reperfusion, 70 min, Rep 30′
[21] = AMP (70 min, late): started 10 min after reperfusion, 70 min, Rep 90′
[22] = AMP (70 min, late): started 10 min after reperfusion, 70 min, Rep 180′
[23] = AMP (70 min, onset): 30 μg/kg iv bolus + 3 μg/kg/min, started at onset of reperfusion, 70 min, Baseline
[24] = AMP (70 min, onset): started at onset of reperfusion, 70 min, Ischemia (end of 30 min)
[25] = AMP (70 min, onset): started at onset of reperfusion, 70 min, Rep 30′
[26] = AMP (70 min, onset): started at onset of reperfusion, 70 min, Rep 90′
[27] = AMP (70 min, onset): started at onset of reperfusion, 70 min, Rep 180′
[28] = Adenosine 150 μg/kg/min iv, 70 min starting 10 min before reperfusion
[29] = Adenosine 300 μg/kg/min iv, 70 min starting 10 min before reperfusion
[30] = Adenosine 400 μg/kg/min iv, 70 min starting 10 min before reperfusion

Chain of A2a receptor subtype (P29274 whole entry): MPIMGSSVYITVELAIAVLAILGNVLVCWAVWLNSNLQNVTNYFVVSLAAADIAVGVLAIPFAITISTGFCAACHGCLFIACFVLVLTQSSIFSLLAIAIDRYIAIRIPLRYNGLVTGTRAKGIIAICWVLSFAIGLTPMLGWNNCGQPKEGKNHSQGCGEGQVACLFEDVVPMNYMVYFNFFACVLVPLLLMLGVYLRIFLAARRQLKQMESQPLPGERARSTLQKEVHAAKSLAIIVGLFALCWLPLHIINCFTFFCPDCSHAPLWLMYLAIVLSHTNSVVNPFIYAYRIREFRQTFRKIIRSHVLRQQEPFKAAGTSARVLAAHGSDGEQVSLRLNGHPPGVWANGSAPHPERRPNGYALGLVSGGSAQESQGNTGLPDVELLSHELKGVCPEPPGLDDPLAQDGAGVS

CCNC(=O)[C@H]1CC(n2cnc3c(N[C@H](CC)Cc4sccc4Cl)ccnc32)[C@H](O)[C@@H]1O (relative stereo) [AMP 579, [1S-[1α,2β,3β,4α(S*)]]-4-[7-[[3-chloro-2-thienyl)methyl]propyl]amino]-3H-imidazo[4,5-b]pyridin-3-yl]-N-ethyl-2,3-dihydroxycyclopentanecarboxamide]
Onset of contracture that accompanies reperfusion [1]: greatly attenuates the onset of contracture | HR [2, 8]: 271 ± 3 beats/min | MAP [2, 8]: 91.8 ± 2.8 mmHg | HR [2, 9]: 247 ± 5 beats/min | MAP [2, 9]: 73.7 ± 3.9 mmHg | HR [2, 10]: 241 ± 7 beats/min | MAP [2, 10]: 74.8 ± 5.1 mmHg | HR [2, 11]: 256 ± 11 beats/min | MAP [2, 11]: 77.7 ± 5.7 mmHg | HR [2, 12]: 265 ± 6 beats/min | MAP [2, 12]: 77.9 ± 5.2 mmHg | HR [2, 13]: 271 ± 11 beats/min | MAP [2, 13]: 99.3 ± 2.4 mmHg | HR [2, 14]: 268 ± 7 beats/min | MAP [2, 14]: 76.8 ± 6.6 mmHg | HR [2, 15]: 250 ± 14 beats/min | MAP [2, 15]: 70.4 ± 8.1 mmHg | HR [2, 16]: 268 ± 13 beats/min | MAP [2, 16]: 83.5 ± 5.0 mmHg | HR [2, 17]: 268 ± 10 beats/min | MAP [2, 17]: 81.8 ± 4.5 mmHg | HR [2, 18]: 285 ± 3 beats/min | MAP [2, 18]: 96.9 ± 2.9 mmHg | HR [2, 19]: 281 ± 1 beats/min | MAP [2, 19]: 84.6 ± 4.5 mmHg | HR [2, 20]: 243 ± 8 beats/min | MAP [2, 20]: 57.4 ± 5.6 mmHg | HR [2, 21]: 240 ± 6 beats/min | MAP [2, 21]: 69.0 ± 4.9 mmHg | HR [2, 22]: 259 ± 10 beats/min | MAP [2, 22]: 68.1 ± 3.6 mmHg | HR [2, 23]: 262 ± 6 beats/min | MAP [2, 23]: 98.6 ± 3.2 mmHg | HR [2, 24]: 270 ± 9 beats/min | MAP [2, 24]: 89.0 ± 3.2 mmHg | HR [2, 25]: 233 ± 9 beats/min | MAP [2, 25]: 55.6 ± 3.9 mmHg | HR [2, 26]: 235 ± 16 beats/min | MAP [2, 26]: 70.8 ± 4.5 mmHg | HR [2, 27]: 264 ± 10 beats/min | MAP [2, 27]: 79.6 ± 3.9 mmHg | Hypotensive effect ([2]; infusion commenced before the onset of reperfusion (AMP 30 min and AMP 40 min groups)): additional mild hypotensive effect | Burst of free radicals at reperfusion ([3]; 1 μM): virtually eliminated it | Ki [4]: 56 nM | Protection against infarction (dose required) ([5]; 3 μg/kg/min): protective | Infarct size, percentage of the risk zone ([5]; 70-min infusion starting 10 min prior to reperfusion, previous study (Xu et al.)): 12.3±1.0% | Ki [6]: 5 nM | Infarct size, percentage of the risk zone ([7]; 70 min, started 10 min after reperfusion): 27.6±7.2% | Infarct size, percentage of the risk zone ([7]; 70 min, started at onset of reperfusion, p<0.05 vs. control): 13.0±1.9% | Infarct size, percentage of the risk zone ([7]; started 10 min before reperfusion, 30 min infusion): 30.1±1.4% | Infarct size, percentage of the risk zone ([7]; started 10 min before reperfusion, 40 min infusion): 24.8±5.9% | Infarct size ([7]; AMP (30 min): 30 μg/kg iv bolus + 3 μg/kg/min, started 10 min before reperfusion, 30 min): 0.27 ± 0.05 cm^3 | Infarct size ([7]; AMP (40 min): 30 μg/kg iv bolus + 3 μg/kg/min, started 10 min before reperfusion, 40 min): 0.27 ± 0.07 cm^3 | Infarct size ([7]; AMP (70 min, late): 30 μg/kg iv bolus + 3 μg/kg/min, started 10 min after reperfusion, 70 min): 0.28 ± 0.07 cm^3 | Infarct size ([7]; AMP (70 min, onset): 30 μg/kg iv bolus + 3 μg/kg/min, started at onset of reperfusion, 70 min, * p<0.05 vs. control): 0.14 ± 0.03* cm^3

Nc1ncnc2c1ncn2[C@@H]1O[C@H](CO)[C@@H](O)[C@H]1O [Adenosine]
Burst of free radicals at reperfusion ([3]; 100 μM (a receptor saturating concentration)): failed to block the burst of free radicals at reperfusion | % infarction of the risk zone [7, 28]: 32.6 ± 5.8% | Infarct size [7, 28]: 0.36 ± 0.09 cm^3 | % infarction of the risk zone [7, 29]: 34.4 ± 9.5% | Infarct size [7, 29]: 0.36 ± 0.11 cm^3 | % infarction of the risk zone [7, 30]: 29.2 ± 8.0% | Infarct size [7, 30]: 0.30 ± 0.08 cm^3 | Protection against infarction ([7]; 70 min starting 10 min before reperfusion): No protection was seen | Protection against infarction ([7]; 70 min starting 10 min before reperfusion, listed as adenosine): none of the doses was protective | Infarct size (% of risk zone) ([7]; Infusion rate 300 ug/kg/min): 34.4 ± 9.5% | Infarct size (% of risk zone) ([7]; Infusion rate 400 ug/kg/min): 29.2 ± 8.0%
